Read-outs that look alike come from different tables or passages of the source.
Key:
[1] = target: T1, TRPC5 (Homo sapiens, UniProt Q9UL62); test: Automated patch clamp assay, HEK293 cells overexpressing TRPC5, current block after rosiglitazone stimulation; format: cell-based; details: whole cell automated patch
T1 construct: expressed in transfected cells
T1 sequence (Q9UL62 1-973): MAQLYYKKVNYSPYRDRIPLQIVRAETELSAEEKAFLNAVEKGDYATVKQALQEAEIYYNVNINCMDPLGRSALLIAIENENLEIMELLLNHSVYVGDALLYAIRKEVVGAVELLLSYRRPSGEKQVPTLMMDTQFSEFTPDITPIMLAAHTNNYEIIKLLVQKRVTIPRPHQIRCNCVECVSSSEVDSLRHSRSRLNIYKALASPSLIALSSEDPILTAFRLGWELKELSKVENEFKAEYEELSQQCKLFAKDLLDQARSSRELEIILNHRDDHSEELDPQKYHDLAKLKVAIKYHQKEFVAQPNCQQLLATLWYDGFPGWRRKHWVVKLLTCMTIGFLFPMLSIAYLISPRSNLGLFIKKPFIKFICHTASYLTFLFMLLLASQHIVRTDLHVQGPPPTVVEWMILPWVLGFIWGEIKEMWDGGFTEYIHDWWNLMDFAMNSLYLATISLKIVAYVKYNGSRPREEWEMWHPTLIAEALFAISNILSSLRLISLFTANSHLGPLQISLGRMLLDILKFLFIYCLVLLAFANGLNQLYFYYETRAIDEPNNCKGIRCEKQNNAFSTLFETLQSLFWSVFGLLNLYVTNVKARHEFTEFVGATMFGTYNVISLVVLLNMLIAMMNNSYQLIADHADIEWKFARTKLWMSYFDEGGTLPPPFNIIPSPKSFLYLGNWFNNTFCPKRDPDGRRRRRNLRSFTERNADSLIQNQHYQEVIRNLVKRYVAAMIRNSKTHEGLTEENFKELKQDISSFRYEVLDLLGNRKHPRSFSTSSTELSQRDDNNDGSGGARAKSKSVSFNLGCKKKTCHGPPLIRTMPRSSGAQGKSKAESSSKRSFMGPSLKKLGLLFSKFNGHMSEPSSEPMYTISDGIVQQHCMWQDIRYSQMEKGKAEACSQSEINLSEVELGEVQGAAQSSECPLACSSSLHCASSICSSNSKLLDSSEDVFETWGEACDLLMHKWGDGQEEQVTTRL

[2] = test system: murine podocytes; test: Murine podocytes with protamine sulfate injury; format: cell-based; details: pretreated 0.1, 1, 10 uM for 20 minutes, 300 ug/mL protamine sulfate 1 hour
Description: Conditionally immortalized murine podocytes were differentiated for 14 days in gamma-interferon-free media[Synaptopodin Is a Coincidence Detector of Tyrosine versus Serine/Threonine Phosphorylation for the Modulation of Rho Protein Crosstalk in Podocytes. Buvall L, Wallentin H, Sieber J, Andreeva S, Choi H Y, Mundel P, Greka A. J Am Soc Nephrol. 2017 March; 28(3):837-851. doi: 10.1681/ASN.2016040414. Epub 2016 Sep. 14.]. Murine podocyte cells were pretreated with 0.1, 1, 10 uM of AO or DMSO for 20 minutes then insulted with 300 ug/mL of protamine sulfate (PS) for 1 hour; 3 technical replicate plates were treated for each condition. Murine cells were washed with 1×DPBS −/−, fixed in 4% PFA+4% sucrose for 10 minutes at room temperature, washed 3 times with 1×DPBS −/−, permeabilized with 0.3% triton, and probed for phalloidin, synaptopodin, and DAPI (Proteasomal degradation of Nck1 but not Nck2 regulates RhoA activation and actin dynamics. Buvall L, Rashmi P, Lopez-Rivera E, Andreeva S, Weins A, Wallentin H, Greka A, Mundel P. Nat Commun. (2013) 4:2863. doi: 10.1038/ncomms3863.). Tiled images were acquired using a Zeiss LSM880 Airyscan super resolution confocal microscope using ZEN 2.3. Manual quantitation of cells with or without collapsed actin cytoskeleton were quantified. […]

[3] = test system: human iPSC derived kidney organoids; test: Human iPSC derived kidney organoids with protamine sulfate injury; format: cell-based; details: pretreated 0.2, 2, 20 uM for 20 minutes, 300 ug/mL protamine sulfate 1 hour; vs protamine sulfate alone
Description: Human iPSC derived kidney organoids differentiated for 22 days [Generation of kidney organoids from human pluripotent stem cells. Takasato M, Er P X, Chiu H S, Little M H. Nat Protoc. 2016 September; 11(9):1681-92. doi: 10.1038/nprot.2016.098. Epub 2016 Aug. 18.] were pretreated with 0.2, 2, 20 uM of AO or DMSO for 20 minutes then insulted with 300 ug/mL of protamine sulfate for 1 hour; 3 technical replicate organoids were treated for each condition. Organoids were washed twice with 1×DPBS−/−, fixed in 4% PFA for 25 minutes at room temperature, washed twice with 1×DPBS−/−, and transferred to 30% sucrose at 4° C. overnight, then snap frozen in Tissue-Tek O.C.T. compound. Organoids were cryosectioned at […] thickness and stained for phalloidin. Tiled images were acquired using a Zeiss LSM880 Airyscan super resolution confocal microscope using ZEN 2.3. Mean intensity values were quantified using Fiji/ImagJ1.52d.

[4] = test system: deoxycorticosterone acetate (DOCA)-salt hypertensive rats; test: Albuminuria in DOCA-salt hypertensive rats; format: in vivo, Sprague Dawley rats
Description: The aim of this study was to evaluate the effects of the TRCP5 inhibitor, AO, to attenuate the development and/or progression of albuminuria in deoxycorticosterone acetate (DOCA)-salt hypertensive rats.
The DOCA-salt hypertensive rat model is a well-established model of mineralocorticoid hypertension with renal dysfunction, characterized by increase levels of urinary protein and albumin excretion. [Schenk et al., “The pathogenesis of DOCA-salt hypertension,” J. Pharmacol. Toxicol. Methods (May 1992) 27(3):161-170; Gomez-Sanchez et al., “Mineralocorticoids, salt and high blood pressure,” Steroids (1996) 61:184-188.]
Six to seven weeks old Sprague Dawley rats were unilaterally nephrectomized; after one-week recovery, rats were implanted with a DOCA pellet (45 mg) and provided tap water containing 0.9% NaCl and 0.2% KCl (Day 1) for a 3 weeks treatment. On Day 1, DOCA-salt rats received one daily dose, subcutaneously (SC), of AO at 30 mg/kg for 3 weeks; control animals for DOCA treatment were administered vehicle or eplerenone, an aldosterone blocker; sham animals, implanted with a silicone-water pellet, were given tap water and received SC administration of the vehicle. Proteinuria, albuminuria and arterial blood pressure as well as body weight were recorded every week.

[5] = DOCA-AO compared to sham animals, week 1 to 3
[6] = DOCA-salt treatment followed by AO

IC50 ([1]; 80 mV, read-out: TRPC5_QP_XC50_80): 0.01 to 1000 nM
IC50 ([1]; 100 mV, read-out: TRPC5_QP_X50_100): 0.01 to 1000 nM
SMILES: O=C1CN(c2cn[nH]c(=O)c2Cl)CCN1Cc1ccccc1C(F)(F)F [AO]
murine cells protected from cytoskeletal collapse induced by protamine sulfate [2]: ~20%
injury from protamine sulfate (mean phalloidin intensity per organoid) [3]: decreased injury
urinary albumin excretion ([4]; 30 mg/kg SC daily, week 1 to week 3, vs DOCA-vehicle control rats, significance at week 3 (p value 0.0011)): attenuated
adverse effects ([4]; 30 mg/kg SC once daily for 3 weeks): No adverse effects were observed
body weight ([4]; DOCA vs DOCA-AO, 30 mg/kg SC once daily for 3 weeks): no significant difference
diastolic BP [4, 5]: elevated
mean arterial blood pressure (BP) [4, 5]: elevated
systolic BP [4, 5]: elevated
urine volume produced per day [4, 6]: elevated
water intake [4, 6]: elevated

Reference: patent US20220152031A1, “PYRIDAZINONES AND METHODS OF USE THEREOF” (Goldfinch Bio, Inc., priority 2019, published 2022)
